According to paper PMC9506420, “Biological Evaluation of 3-Azaspiro[Bicyclo[3.1.0]Hexane-2,5′-Pyrimidines] as Potential Antitumor Agents” (International Journal of Molecular Sciences, 2022):
Values joined by “and” are separate entries in the source; they are usually repeats but may differ in a detail not shown here. Equal entries are not always repeated. Where two headings read alike, the source gives them in different places.

Key:
[1] = system: CT26 cells; test: Cell cycle distribution by flow cytometry (propidium iodide), CT26; format: cell-based, mouse; settings: for SubG1 (%) / G2/M (%) / S (%) / G0/G1 (%): CT26, 10 μg/mL, 24 h; for SubG1 (%): control 3.6 ± 0.6; for G2/M (%): control 12.3 ± 0.9; for S (%): control 40.1 ± 1.5; for G0/G1 (%): control 44.0 ± 1.7; for cytostatic effect (cell cycle), CT26: CT26 cell line
Protocol: (§1) One of the indicators of the influence of biologically active products on the cells is the changed distribution of cells during different stages of the cell cycle. In this work, recently synthesized compounds were tested using flow cytometry for their effect on the distribution of cells in the cell cycle (G0/G1, G2/M, and S). Figure 8, Figure 9 and Figure 10 and Table 3 show the typical data after processing the results from three replicates of each experiment.
(§2) The distribution of HeLa and CT26 cells in the G0/G1-, S-, and G2/M-phases of the cell cycle was obtained by quantification of DNA content in propidium-iodide-stained cells using flow cytometry. Briefly, cells were seeded in 24-well plates at a density of 5 × 10^4 cells per well. After 24 h incubation, cells were exposed to 10 μg/mL of compounds 4c–i (the structure is provided in Scheme 1) for 24 h. The effects of compounds 4d, 4e, 4g, 4h were additionally tested at concentrations of 2 and 5 μg/mL. After incubation with drugs, the cells were detached by exposure to trypsin-EDTA for 5 min at 37 °C and then collected by pipetting. This was followed by treatment with 0.2 mg/mL saponin (Fluka, Waltham, MA, USA), 0.25 mg/mL RNase (Sigma-Aldrich, St. Louis, MO, USA), and 0.05 mg/mL propidium iodide (Invitrogen, Carlsbad, CA, USA). After washing, the samples were analyzed by standard flow cytometer (BD FACSCanto II, Becton Dickinson, San Jose, CA, USA). Then, 10,000 events were acquired for the sample. Data processing was performed using BD FACSDiva 9.0 software.

[2] = system: CT26 cells; test: Annexin V-FITC/DAPI cell death analysis, CT26; format: cell-based, mouse; settings: CT26, 10 μg/mL, 72 h; for Necrotic Cells, %: control 0.0 ± 0.0; for Late Apoptotic Cells, %: control 0.9 ± 0.4; for Early Apoptotic Cells, %: control 10.5 ± 0.7; for Live Cells, %: control 88.5 ± 1.1
Protocol: (§3) The results of cell death detection after the exposure of the HeLa and CT26 cell lines to spiro-fused cycloadducts 4c–i at a dose of 10 μg/mL for 72 h, using Annexin V-FITC/DAPI staining, are shown in Figure 6 and Figure 7, respectively.
(§4) Cells were seeded in 24-well plates, 5 × 10^4 cells per well. After 24 h incubation, cells were treated with compounds 4c–i for 72 h. Then, cells were washed, harvested by trypsinisation, stained with Annexin V-FITC ([…]) and DAPI (Thermo Fisher Scientific, Waltham, MA, USA), in accordance with the protocol of the manufacturer, and analyzed by flow cytometry. The proapoptotic effect of azaspiro[bicyclo[3.1.0]hexane-2,5′-pyrimidines] 4c–i was evaluated by an Annexin V-FITC/DAPI (AV/DAPI) dual-staining assay to examine the occurrence of phosphatidylserine externalization, which facilitated the detection of live cells (lower-left quadrant; AV−/DAPI−), early apoptotic cells (upper-left quadrant; AV+/DAPI−), late apoptotic cells (upper-right quadrant; AV+/DAPI+), and necrotic cells (lower-right quadrant; AV−/DAPI+).

[3] = system: human T lymphocyte (Jurkat) cell line; test: MTS antiproliferative (cytotoxicity) assay, Jurkat; format: cell-based; settings: for IC50: Homo sapiens, MTS; for SI (selectivity index), Jurkat: Vero as reference cell line
Protocol: The cytotoxicity of synthesized 3-azaspiro[bicyclo[3.1.0]hexane-2,5′-pyrimidines] 4 against human erythroleukemia (K562), cervical carcinoma (HeLa), and T lymphocyte (Jurkat), as well as mouse colon carcinoma (CT26) and African green monkey kidney epithelial (Vero) cell lines as reference, was evaluated in vitro by the standard MTS assay for 24 and 72 h. The results are presented in Figure 1, Figure 2, Figure 3, Figure 4 and Figure 5 (data on all, tested on K562, HeLa, and CT26 cell lines’ compounds, are given at SI, Figures S1–S3). […] Replacement of the phenyl group by either the carboxymethyl or N-isopropylcarbamoyl group has led to a significant decrease in the activity of spiro-fused cycloadducts comprising azabicyclo[3.1.0]hexane and alloxane moieties.
(§5) All the cell lines (human cervical carcinoma (HeLa), erythroleukemia (K-562), and T lymphocyte (Jurkat) as well as mouse colon carcinoma (CT26) and African green monkey kidney epithelial (Vero)) were obtained from the cell repository “Vertebrate cell culture collection” (supported by the Ministry of Science and Higher Education of the Russian Federation, agreement №075-15-2021-683, Institute of Cytology, Russian Academy of Sciences, Saint Petersburg, Russia). HeLa, Jurkat, and Vero cells were cultured in DMEM (HyClone, South Logan, UT, USA) supplemented with 10% (v/v) fetal bovine serum (Hyclone, GE Healthcare Life Sciences, Logan, UT, USA), and gentamicin (Sigma-Aldrich, St. Louis, MO, USA) at 37 °C in a humidified atmosphere with 5% CO2. K-562 and CT26 cells were grown at RPMI medium (Hyclone, GE Healthcare Life Sciences, Logan, UT, USA), with the same supplements and conditions.
(§6) To evaluate the in vitro toxicity of compounds synthesized, cells were seeded into 96-well plates at a density of 5 × 10^3 cells per well. On the next day, tested compounds were added to the wells at concentrations ranging from […], followed by incubation for 1 and 3 days. Cell proliferation was determined by adding 20 μL of MTS reagent (BioVision, Milpitas, CA, USA) stock solution per well. Each plate was incubated for 2 h at 37 °C in a humidified, 5% CO2 atmosphere. The plates were then read at 495 nm using plate spectrophotometer (Multiskan GO, Thermo Fisher Scientific, Waltham, MA, USA). All samples were measured in triplicates.

[4] = system: HeLa cells; test: Cell cycle distribution by flow cytometry (propidium iodide), HeLa; format: cell-based, human; settings: for SubG1 (%) / G2/M (%) / S (%) / G0/G1 (%): HeLa, 10 μg/mL, 24 h; for SubG1 (%): control 2.3 ± 0.4; for G2/M (%): control 12.2 ± 1.3; for S (%): control 12.5 ± 1.7; for G0/G1 (%): control 73.1 ± 2.6
Protocol: as §1, §2

[5] = system: HeLa cells; test: Annexin V-FITC/DAPI cell death analysis, HeLa; format: cell-based, human; settings: 10 μg/mL, 72 h; for Necrotic Cells, %: control 0.5 ± 0.3; for Early Apoptotic Cells, %: control 4.5 ± 0.7; for Late Apoptotic Cells, %: control 5.9 ± 0.4; for Live Cells, %: control 89.0 ± 0.7
Protocol: as §3, §4

[6] = system: mouse colon carcinoma (CT26) cell line; test: MTS antiproliferative (cytotoxicity) assay, CT26; format: cell-based; settings: for SI (selectivity index), CT26: Vero as reference cell line; for IC50: Mus musculus
Protocol: (§7) The cytotoxicity of synthesized 3-azaspiro[bicyclo[3.1.0]hexane-2,5′-pyrimidines] 4 against human erythroleukemia (K562), cervical carcinoma (HeLa), and T lymphocyte (Jurkat), as well as mouse colon carcinoma (CT26) and African green monkey kidney epithelial (Vero) cell lines as reference, was evaluated in vitro by the standard MTS assay for 24 and 72 h.
as §5, §6

[7] = system: human erythroleukemia (K562) cell line; test: MTS antiproliferative (cytotoxicity) assay, K562; format: cell-based; settings: for IC50: Homo sapiens; for SI (selectivity index), K562: Vero as reference cell line
Protocol: as §7, §5, §6

[8] = 24 h, read-out: IC50, Jurkat, 24 h
[9] = 72 h, read-out: IC50, Jurkat, 72 h
[10] = CT26, 24 h, read-out: IC50, CT26, 24 h
[11] = CT26, 72 h, read-out: IC50, CT26, 72 h
[12] = K562, 24 h, read-out: IC50, K562, 24 h
[13] = K562, 72 h, read-out: IC50, K562, 72 h

Row | Compound | SubG1 (%) [1] | G2/M (%) [1] | S (%) [1] | G0/G1 (%) [1] | Necrotic Cells, % [2] | Late Apoptotic Cells, % [2] | Early Apoptotic Cells, % [2] | Live Cells, % [2] | IC50 [3, 8] | IC50 [3, 9] | SI (selectivity index), Jurkat [3] | SubG1 (%) [4] | G2/M (%) [4] | S (%) [4] | G0/G1 (%) [4] | Necrotic Cells, % [5] | Early Apoptotic Cells, % [5] | Late Apoptotic Cells, % [5] | Live Cells, % [5] | SI (selectivity index), CT26 [6] | also measured
1 | CC(C)C[C@@H]1NC2(C(=O)NC(=O)NC2=O)[C@]2(c3ccccc3)[C@@H](c3ccccc3)[C@]12c1ccccc1 [Compound 4f] | 24.9 ± 5.2 % | 13.5 ± 0.9 % | 31.9 ± 2.6 % | 29.7 ± 1.4 % | 1.9 ± 0.5 % | 57.8 ± 3.1 % | 6.2 ± 1.2 % | 34.1 ± 3.8 % | 11 ± 2 µM | 9 ± 2 µM | 1.2 | 10.5 ± 2.0 % | 12.8 ± 1.3% | 15.2 ± 1.2 % | 61.5 ± 3.3 % | 2.1 ± 1.3 % | 2.9 ± 0.1 % | 4.1 ± 0.5 % | 90.9 ± 1.6% | 1.0 | cytostatic effect (cell cycle), CT26 [1]: best effect; rate of cell death in HeLa vs control [5]: not different from the control; IC50 [6, 10]: 17 ± 2 µM; IC50 [6, 11]: 10 ± 2 µM; IC50 [7, 12]: 17 ± 4 µM; IC50 [7, 13]: 6 ± 2 µM; SI (selectivity index), K562 [7]: 1.7
2 | CCC[C@@H]1NC2(C(=O)NC(=O)NC2=O)[C@]2(c3ccccc3)[C@@H](c3ccccc3)[C@]12c1ccccc1 [Compound 4d] | 12.2 ± 1.1 % | 17.9 ± 0.6 % | 34.4 ± 2.3 % | 35.6 ± 1.0 % | 1.1 ± 0.3 % | 56.4 ± 2.4 % | 9.6 ± 0.5% | 32.8 ± 3.0 % | 15 ± 2 µM | 13 ± 2 µM | 1.3 | 18.1 ± 1.0 % | 8.4 ± 1.5 % | 15.5 ± 1.1 % | 58.0 ± 4.4 % | 3.6 ± 1.8 % | 11.6 ± 0.2 % | 38.1 ± 16.8 % | 46.8% and 46.8 ± 18.4 % | 1.3 | cytostatic effect (cell cycle), CT26 [1]: best effect; IC50 [6, 10]: 17 ± 2 µM; IC50 [6, 11]: 13 ± 2 µM; IC50 [7, 12]: 21 ± 4 µM; IC50 [7, 13]: 9 ± 2 µM; SI (selectivity index), K562 [7]: 1.8
3 | CCCCCC[C@@H]1NC2(C(=O)NC(=O)NC2=O)[C@]2(c3ccccc3)[C@@H](c3ccccc3)[C@]12c1ccccc1 [Compound 4g] | 1.9 ± 0.5 % | 19.4 ± 4.7 % | 17.0 ± 4.3 % | 61.7 ± 9.4 % | 0.3 ± 0.1 % | 10.0 ± 0.3 % | 5.5 ± 0.1 % | 84.2 ± 0.3 % | 11 ± 2 µM | 8 ± 2 µM | 1.8 | 39.5 ± 5.0 % | 5.3 ± 0.7 % | 13.3 ± 0.8% | 41.8 ± 3.0 % | 6.3 ± 2.8 % | 38.5 ± 1.9 % | 38.0 ± 6.9 % | 17.1% and 17.1 ± 3.5 % | 1.2 | cytostatic effect (cell cycle), HeLa ([4]; HeLa cell line): strongest cytostatic effect; IC50 [6, 10]: 22 ± 2 µM; IC50 [6, 11]: 12 ± 2 µM; IC50 [7, 12]: 19 ± 2 µM; IC50 [7, 13]: 10 ± 2 µM; SI (selectivity index), K562 [7]: 1.4
